#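 Five concentrations, 48 hours, 96-well plates. At the GI50, growth is halved. Definition used: TGI = concentration required for complete inhibition of growth.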
# Assays:
# Experiment in all cases: NCI tumour cell line growth inhibition, 48 h
# 786-0 renal = system: 786-0 renal
# A498 renal = system: A498 renal
# A549 NSCLC = system: A549 NSCLC
# ACHN renal = system: ACHN renal
# BT-549 breast = system: BT-549 breast
# CAKI-1 renal = system: CAKI-1 renal
# CCRF-CEM leukemia = system: CCRF-CEM leukemia
# COLO 205 colon = system: COLO 205 colon
# DU-145 prostate = system: DU-145 prostate
# EKVX NSCLC = system: EKVX NSCLC
# HCC-2998 colon = system: HCC-2998 colon
# HCT-116 colon = system: HCT-116 colon
# HCT-15 colon = system: HCT-15 colon
# HL-60(TB) leukemia = system: HL-60(TB) leukemia
# HOP-62 NSCLC = system: HOP-62 NSCLC
# HOP-92 NSCLC = system: HOP-92 NSCLC
# HS 578T breast = system: HS 578T breast
# HT29 colon = system: HT29 colon
# IGROV1 ovarian = system: IGROV1 ovarian
# K-562 leukemia = system: K-562 leukemia
# KM12 colon = system: KM12 colon
# LOX IMVI melanoma = system: LOX IMVI melanoma
# M14 melanoma = system: M14 melanoma
# MALME-3M melanoma = system: MALME-3M melanoma
# MCF7 breast = system: MCF7 breast
# MDA-MB-231 breast = system: MDA-MB-231 breast
# MDA-MB-435 = system: MDA-MB-435
# MDA-MB-468 breast = system: MDA-MB-468 breast
# MOLT-4 leukemia = system: MOLT-4 leukemia
# NCI-H226 lung = system: NCI-H226 lung
# NCI-H23 lung = system: NCI-H23 lung
# NCI-H460 lung = system: NCI-H460 lung
# NCI-H522 lung = system: NCI-H522 lung
# NCI/ADR-RES ovarian = system: NCI/ADR-RES ovarian
# OVCAR-3 ovarian = system: OVCAR-3 ovarian
# OVCAR-4 ovarian = system: OVCAR-4 ovarian
# OVCAR-5 ovarian = system: OVCAR-5 ovarian
# OVCAR-8 ovarian = system: OVCAR-8 ovarian
# PC-3 prostate = system: PC-3 prostate
# RPMI-8226 leukemia = system: RPMI-8226 leukemia
# RXF 393 renal = system: RXF 393 renal
# SF-268 CNS = system: SF-268 CNS
# SF-295 CNS = system: SF-295 CNS
# SF-539 CNS = system: SF-539 CNS
# SK-MEL-2 melanoma = system: SK-MEL-2 melanoma
# SK-MEL-28 melanoma = system: SK-MEL-28 melanoma
# SK-MEL-5 melanoma = system: SK-MEL-5 melanoma
# SK-OV-3 ovarian = system: SK-OV-3 ovarian
# SN12C renal = system: SN12C renal
# SNB-19 CNS = system: SNB-19 CNS
# SNB-75 CNS = system: SNB-75 CNS
# SR leukemia = system: SR leukemia
# SW-620 colon = system: SW-620 colon
# T-47D breast = system: T-47D breast
# TK-10 renal = system: TK-10 renal
# U251 CNS = system: U251 CNS
# UACC-257 melanoma = system: UACC-257 melanoma
# UACC-62 melanoma = system: UACC-62 melanoma
# UO-31 renal = system: UO-31 renal
compound,measurement,setting,value
COc1ccc2[nH]c(O)c(N=Nc3nc(-c4ccccc4)cs3)c2c1,GI50,786-0 renal,1.96 µM
same,TGI,786-0 renal,3.69 µM
same,GI50,A498 renal,2.67 µM
same,TGI,A498 renal,5.96 µM
same,GI50,A549 NSCLC,2.76 µM
same,TGI,A549 NSCLC,11.3 µM
same,GI50,ACHN renal,2.89 µM
same,TGI,ACHN renal,10.2 µM
same,GI50,BT-549 breast,4.43 µM
same,TGI,BT-549 breast,21.8 µM
same,GI50,CAKI-1 renal,3.85 µM
same,TGI,CAKI-1 renal,16.7 µM
same,GI50,CCRF-CEM leukemia,6.48 µM
same,TGI,CCRF-CEM leukemia,> 100 µM
same,GI50,COLO 205 colon,4.87 µM
same,TGI,COLO 205 colon,29.5 µM
same,GI50,DU-145 prostate,4.31 µM
same,TGI,DU-145 prostate,17.5 µM
same,GI50,EKVX NSCLC,2.62 µM
same,TGI,EKVX NSCLC,20.2 µM
same,GI50,HCC-2998 colon,6.93 µM
same,TGI,HCC-2998 colon,> 100 µM
same,GI50,HCT-116 colon,2.26 µM
same,TGI,HCT-116 colon,5.34 µM
same,GI50,HCT-15 colon,3.26 µM
same,TGI,HCT-15 colon,17.3 µM
same,GI50,HL-60(TB) leukemia,41.1 µM
same,TGI,HL-60(TB) leukemia,> 100 µM
same,GI50,HOP-62 NSCLC,5.26 µM
same,TGI,HOP-62 NSCLC,30.3 µM
same,GI50,HOP-92 NSCLC,1.06 µM
same,TGI,HOP-92 NSCLC,4.14 µM
same,GI50,HS 578T breast,4.27 µM
same,TGI,HS 578T breast,42.9 µM
same,GI50,HT29 colon,7.21 µM
same,TGI,HT29 colon,41.1 µM
same,GI50,IGROV1 ovarian,5.04 µM
same,TGI,IGROV1 ovarian,31.9 µM
same,GI50,K-562 leukemia,4.62 µM
same,TGI,K-562 leukemia,> 100 µM
same,GI50,KM12 colon,5.55 µM
same,TGI,KM12 colon,> 100 µM
same,GI50,LOX IMVI melanoma,3.08 µM
same,TGI,LOX IMVI melanoma,10.5 µM
same,GI50,M14 melanoma,5.8 µM
same,TGI,M14 melanoma,46.7 µM
same,GI50,MALME-3M melanoma,2.51 µM
same,TGI,MALME-3M melanoma,13.1 µM
same,GI50,MCF7 breast,3.66 µM
same,TGI,MCF7 breast,42.5 µM
same,GI50,MDA-MB-231 breast,2.66 µM
same,TGI,MDA-MB-231 breast,12.7 µM
same,GI50,MDA-MB-435,4.96 µM
same,TGI,MDA-MB-435,> 100 µM
same,GI50,MDA-MB-468 breast,1.71 µM
same,TGI,MDA-MB-468 breast,5.35 µM
same,GI50,MOLT-4 leukemia,7.27 µM
same,TGI,MOLT-4 leukemia,> 100 µM
same,GI50,NCI-H226 lung,2.65 µM
same,TGI,NCI-H226 lung,13.4 µM
same,GI50,NCI-H23 lung,3.56 µM
same,TGI,NCI-H23 lung,19.5 µM
same,GI50,NCI-H460 lung,3.43 µM
same,TGI,NCI-H460 lung,14.8 µM
same,GI50,NCI-H522 lung,2.29 µM
same,TGI,NCI-H522 lung,9.63 µM
same,GI50,NCI/ADR-RES ovarian,2.24 µM
same,TGI,NCI/ADR-RES ovarian,5.15 µM
same,GI50,OVCAR-3 ovarian,3.06 µM
same,TGI,OVCAR-3 ovarian,12.5 µM
same,GI50,OVCAR-4 ovarian,1.98 µM
same,TGI,OVCAR-4 ovarian,5.07 µM
same,GI50,OVCAR-5 ovarian,5.44 µM
same,TGI,OVCAR-5 ovarian,36.7 µM
same,GI50,OVCAR-8 ovarian,3.11 µM
same,TGI,OVCAR-8 ovarian,10.5 µM
same,GI50,PC-3 prostate,4.57 µM
same,TGI,PC-3 prostate,> 100 µM
same,GI50,RPMI-8226 leukemia,14.4 µM
same,TGI,RPMI-8226 leukemia,> 100 µM
same,GI50,RXF 393 renal,3.05 µM
same,TGI,RXF 393 renal,8.74 µM
same,GI50,SF-268 CNS,3.1 µM
same,TGI,SF-268 CNS,11.8 µM
same,GI50,SF-295 CNS,3.35 µM
same,TGI,SF-295 CNS,12.6 µM
same,GI50,SF-539 CNS,2.65 µM
same,TGI,SF-539 CNS,8.49 µM
same,GI50,SK-MEL-2 melanoma,13.3 µM
same,TGI,SK-MEL-2 melanoma,59.4 µM
same,GI50,SK-MEL-28 melanoma,4.83 µM
same,TGI,SK-MEL-28 melanoma,> 100 µM
same,GI50,SK-MEL-5 melanoma,11.5 µM
same,TGI,SK-MEL-5 melanoma,48.3 µM
same,GI50,SK-OV-3 ovarian,3.52 µM
same,TGI,SK-OV-3 ovarian,22.2 µM
same,GI50,SN12C renal,2.5 µM
same,TGI,SN12C renal,17.7 µM
same,GI50,SNB-19 CNS,3.09 µM
same,TGI,SNB-19 CNS,10.4 µM
same,GI50,SNB-75 CNS,2.64 µM
same,TGI,SNB-75 CNS,16.2 µM
same,GI50,SR leukemia,4.55 µM
same,TGI,SR leukemia,> 100 µM
same,GI50,SW-620 colon,3.7 µM
same,TGI,SW-620 colon,16.6 µM
same,GI50,T-47D breast,2.78 µM
same,TGI,T-47D breast,15.8 µM
same,GI50,TK-10 renal,6.47 µM
same,TGI,TK-10 renal,16.5 µM
same,GI50,U251 CNS,2.62 µM
same,TGI,U251 CNS,6.97 µM
same,GI50,UACC-257 melanoma,17.4 µM
same,TGI,UACC-257 melanoma,> 100 µM
same,GI50,UACC-62 melanoma,2.54 µM
same,TGI,UACC-62 melanoma,38.7 µM
same,GI50,UO-31 renal,1.38 µM
same,TGI,UO-31 renal,6.4 µM

# Source: PubChem BioAssay (NCI)
